Test results published in patent US9249131B2, “Modulators of ATP-binding cassette transporters” (Vertex Pharmaceuticals Incorporated, priority 2003, dated 2016).

What follows are molecules tested against T1, ΔF508-CFTR (Homo sapiens, UniProt P13569, DEL508-508) (assay: Assays for ΔF508-CFTR correction and potentiator properties (membrane potential optical and electrophysiological methods)). Conditions: CFTR modulation, % Efficacy.
T1 construct: expressed in transfected cells; host or cells: NIH3T3 mouse fibroblasts stably expressing ΔF508-CFTR for the optical, whole-cell and single-channel assays; Fisher rat epithelial (FRT) cells for Ussing chamber follow-up
Type: cell-based
In short: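 NIH3T3 mouse fibroblasts stably expressing ΔF508-CFTR were used, with membrane potential read by DiSBAC2(3)/CC2-DMPE FRET on VIPR. Correctors: 16 h compound exposure at 37 °C, then activation with forskolin plus genistein in Cl⁻-free medium. Potentiators: cells held 24 h at 27 °C, compound added in Cl⁻-free medium, 2-10 μM forskolin 22 s later (final Cl⁻ 28 mM).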

T1 sequence (P13569 with tags, fused parts or gaps DEL508-508): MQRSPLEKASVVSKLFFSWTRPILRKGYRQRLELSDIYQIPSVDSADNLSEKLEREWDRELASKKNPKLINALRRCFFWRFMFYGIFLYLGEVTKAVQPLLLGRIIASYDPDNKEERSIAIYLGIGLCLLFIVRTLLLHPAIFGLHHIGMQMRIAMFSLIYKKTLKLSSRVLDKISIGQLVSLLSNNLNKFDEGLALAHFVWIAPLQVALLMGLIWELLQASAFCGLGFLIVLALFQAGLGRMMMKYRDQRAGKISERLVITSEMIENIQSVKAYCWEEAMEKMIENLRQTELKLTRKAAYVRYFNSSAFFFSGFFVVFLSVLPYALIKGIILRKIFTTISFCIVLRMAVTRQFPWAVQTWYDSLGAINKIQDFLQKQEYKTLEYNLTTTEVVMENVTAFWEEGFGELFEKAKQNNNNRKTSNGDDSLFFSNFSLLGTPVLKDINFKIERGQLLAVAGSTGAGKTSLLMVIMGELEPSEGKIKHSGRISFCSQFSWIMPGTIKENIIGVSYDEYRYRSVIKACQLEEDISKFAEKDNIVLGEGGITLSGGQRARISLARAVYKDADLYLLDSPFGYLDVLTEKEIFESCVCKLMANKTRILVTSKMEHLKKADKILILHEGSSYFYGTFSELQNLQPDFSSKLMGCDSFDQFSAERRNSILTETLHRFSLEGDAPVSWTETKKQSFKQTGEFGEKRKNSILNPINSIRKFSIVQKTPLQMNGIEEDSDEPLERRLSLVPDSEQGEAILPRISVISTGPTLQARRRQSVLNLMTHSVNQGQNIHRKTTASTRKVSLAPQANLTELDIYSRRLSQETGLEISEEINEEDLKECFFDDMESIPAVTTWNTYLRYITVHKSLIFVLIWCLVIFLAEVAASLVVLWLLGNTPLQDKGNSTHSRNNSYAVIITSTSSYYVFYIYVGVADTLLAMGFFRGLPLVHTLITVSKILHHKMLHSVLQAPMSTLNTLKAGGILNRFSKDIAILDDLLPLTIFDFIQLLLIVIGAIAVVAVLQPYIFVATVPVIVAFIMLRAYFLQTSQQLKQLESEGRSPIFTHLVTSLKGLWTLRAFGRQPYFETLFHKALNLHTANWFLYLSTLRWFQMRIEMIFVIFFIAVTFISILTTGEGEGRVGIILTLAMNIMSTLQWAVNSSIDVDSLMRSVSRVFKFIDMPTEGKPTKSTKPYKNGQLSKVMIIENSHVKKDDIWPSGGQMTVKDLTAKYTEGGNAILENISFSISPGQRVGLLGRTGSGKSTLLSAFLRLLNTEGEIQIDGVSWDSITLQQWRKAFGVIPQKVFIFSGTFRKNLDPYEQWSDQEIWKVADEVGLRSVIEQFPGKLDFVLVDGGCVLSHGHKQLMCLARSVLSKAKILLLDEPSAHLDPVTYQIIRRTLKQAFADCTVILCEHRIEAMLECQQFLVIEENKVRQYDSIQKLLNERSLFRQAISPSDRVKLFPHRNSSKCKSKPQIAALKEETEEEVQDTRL

SMILES | % Activity
CC[C@H](C(=O)Nc1ncc(Cc2cccc(Cl)c2)s1)c1ccccc1 [compound 204] | ++ (“++” means between 25% to 100%)
CC[C@H](C(=O)Nc1ncc(Cc2ccc(Cl)cc2)s1)c1ccccc1 [compound 205] | ++ (“++” means between 25% to 100%)
CC(C)CC(=O)Nc1ncc(Cc2ccccc2Cl)s1 [compound 206] | ++ (“++” means between 25% to 100%)
O=C(Nc1ncc(Cc2ccccc2Cl)s1)C1CC1 [compound 207] | ++ (“++” means between 25% to 100%)
CCCC(=O)Nc1ncc(Cc2ccccc2Cl)s1 [compound 210] | ++ (“++” means between 25% to 100%)
CN(C)C(C(=O)Nc1ncc(Cc2ccccc2Cl)s1)c1ccccc1 (stereo not shown) [compound 211] | ++ (“++” means between 25% to 100%)
CCN(CC)C(C(=O)Nc1ncc(Cc2ccccc2Cl)s1)c1ccccc1 (stereo not shown) [compound 212] | ++ (“++” means between 25% to 100%)
CCNC(C(=O)Nc1ncc(Cc2ccccc2Cl)s1)c1ccccc1 (stereo not shown) [compound 213] | ++ (“++” means between 25% to 100%)
O=C(Nc1ncc(Cc2ccccc2Cl)s1)C(c1ccccc1)N1CCOCC1 (stereo not shown) [compound 214] | ++ (“++” means between 25% to 100%)
COC(C(=O)Nc1ncc(Cc2ccccc2Cl)s1)c1ccccc1 (stereo not shown) [compound 216] | ++ (“++” means between 25% to 100%)
CNC(C(=O)Nc1ncc(Cc2ccccc2Cl)s1)c1ccccc1 (stereo not shown) [compound 217] | ++ (“++” means between 25% to 100%)
CCC(C(=O)Nc1ncc(Cc2ccccc2Cl)s1)N(CC)CC (stereo not shown) [compound 221] | ++ (“++” means between 25% to 100%)
Cc1cccc(C(=O)Nc2ncc(-c3ccccc3)s2)c1 [compound 226] | ++ (“++” means between 25% to 100%)
COc1ccccc1-c1csc(NC(=O)c2cccc(Cl)c2)n1 [compound 227] | ++ (“++” means between 25% to 100%)
Cc1cccc(C(=O)Nc2nc(-c3ccccc3Cl)cs2)c1 [compound 228] | ++ (“++” means between 25% to 100%)
O=C(Nc1nc(-c2ccccc2Cl)cs1)c1cccc(Cl)c1 [compound 229] | ++ (“++” means between 25% to 100%)
Cc1ccc(C(=O)Nc2nc(-c3ccccc3Cl)cs2)cc1 [compound 230] | +++ (“+++” means >100%)
COc1cccc(-c2csc(NC(=O)c3cccc(C)c3)n2)c1 [compound 231] | +++ (“+++” means >100%)
COc1cccc(-c2csc(NC(=O)c3cccc(Cl)c3)n2)c1 [compound 232] | ++ (“++” means between 25% to 100%)

Results, then the molecule that gave them:

% Activity | SMILES
++ (“++” means between 25% to 100%) | CCC(=O)Nc1ncc(Cc2ccccc2Cl)s1 [compound 208]
++ (“++” means between 25% to 100%) | O=C(Nc1ncc(Cc2ccccc2Cl)s1)C1CCCC1 [compound 209]
++ (“++” means between 25% to 100%) | O=C(Nc1ncc(Cc2ccccc2Cl)s1)C(c1ccccc1)N1CCCCC1 (stereo not shown) [compound 215]
++ (“++” means between 25% to 100%) | CCC(NC)C(=O)Nc1ncc(Cc2ccccc2Cl)s1 (stereo not shown) [compound 218]
++ (“++” means between 25% to 100%) | CCC(OC)C(=O)Nc1ncc(Cc2ccccc2Cl)s1 (stereo not shown) [compound 219]
++ (“++” means between 25% to 100%) | CCNC(CC)C(=O)Nc1ncc(Cc2ccccc2Cl)s1 (stereo not shown) [compound 220]
++ (“++” means between 25% to 100%) | CCC(C(=O)Nc1ncc(Cc2ccccc2Cl)s1)N(C)C (stereo not shown) [compound 222]
++ (“++” means between 25% to 100%) | CCC(C(=O)Nc1ncc(Cc2ccccc2Cl)s1)N1CCOCC1 (stereo not shown) [compound 223]
++ (“++” means between 25% to 100%) | CCC(C(=O)Nc1ncc(Cc2ccccc2Cl)s1)N1CCSCC1 (stereo not shown) [compound 224]
++ (“++” means between 25% to 100%) | CCC(C(=O)Nc1ncc(Cc2ccccc2Cl)s1)N1CCCCC1 (stereo not shown) [compound 225]

Same assay, conditions: CFTR modulation, tested using the above methods

SMILES | EC50 [µM]
CC[C@H](C(=O)Nc1ncc(Cc2cccc(Cl)c2)s1)c1ccccc1 [compound 204] | < 10
CC[C@H](C(=O)Nc1ncc(Cc2ccc(Cl)cc2)s1)c1ccccc1 [compound 205] | < 10
CC(C)CC(=O)Nc1ncc(Cc2ccccc2Cl)s1 [compound 206] | < 10
O=C(Nc1ncc(Cc2ccccc2Cl)s1)C1CC1 [compound 207] | < 10
CCCC(=O)Nc1ncc(Cc2ccccc2Cl)s1 [compound 210] | 10 to 25
CN(C)C(C(=O)Nc1ncc(Cc2ccccc2Cl)s1)c1ccccc1 (stereo not shown) [compound 211] | < 10
CCN(CC)C(C(=O)Nc1ncc(Cc2ccccc2Cl)s1)c1ccccc1 (stereo not shown) [compound 212] | < 10
CCNC(C(=O)Nc1ncc(Cc2ccccc2Cl)s1)c1ccccc1 (stereo not shown) [compound 213] | 10 to 25
O=C(Nc1ncc(Cc2ccccc2Cl)s1)C(c1ccccc1)N1CCOCC1 (stereo not shown) [compound 214] | 10 to 25
COC(C(=O)Nc1ncc(Cc2ccccc2Cl)s1)c1ccccc1 (stereo not shown) [compound 216] | 10 to 25
CNC(C(=O)Nc1ncc(Cc2ccccc2Cl)s1)c1ccccc1 (stereo not shown) [compound 217] | 25 to 60
CCC(C(=O)Nc1ncc(Cc2ccccc2Cl)s1)N(CC)CC (stereo not shown) [compound 221] | 10 to 25
Cc1cccc(C(=O)Nc2ncc(-c3ccccc3)s2)c1 [compound 226] | 10 to 25
COc1ccccc1-c1csc(NC(=O)c2cccc(Cl)c2)n1 [compound 227] | 10 to 25
Cc1cccc(C(=O)Nc2nc(-c3ccccc3Cl)cs2)c1 [compound 228] | 10 to 25
O=C(Nc1nc(-c2ccccc2Cl)cs1)c1cccc(Cl)c1 [compound 229] | 10 to 25
Cc1ccc(C(=O)Nc2nc(-c3ccccc3Cl)cs2)cc1 [compound 230] | < 10
COc1cccc(-c2csc(NC(=O)c3cccc(C)c3)n2)c1 [compound 231] | 10 to 25
COc1cccc(-c2csc(NC(=O)c3cccc(Cl)c3)n2)c1 [compound 232] | 10 to 25

The remaining lines, values ahead:

EC50 [µM] | SMILES
25 to 60 | CCC(=O)Nc1ncc(Cc2ccccc2Cl)s1 [compound 208]
< 10 | O=C(Nc1ncc(Cc2ccccc2Cl)s1)C1CCCC1 [compound 209]
< 10 | O=C(Nc1ncc(Cc2ccccc2Cl)s1)C(c1ccccc1)N1CCCCC1 (stereo not shown) [compound 215]
25 to 60 | CCC(NC)C(=O)Nc1ncc(Cc2ccccc2Cl)s1 (stereo not shown) [compound 218]
25 to 60 | CCC(OC)C(=O)Nc1ncc(Cc2ccccc2Cl)s1 (stereo not shown) [compound 219]
25 to 60 | CCNC(CC)C(=O)Nc1ncc(Cc2ccccc2Cl)s1 (stereo not shown) [compound 220]
25 to 60 | CCC(C(=O)Nc1ncc(Cc2ccccc2Cl)s1)N(C)C (stereo not shown) [compound 222]
25 to 60 | CCC(C(=O)Nc1ncc(Cc2ccccc2Cl)s1)N1CCOCC1 (stereo not shown) [compound 223]
< 10 | CCC(C(=O)Nc1ncc(Cc2ccccc2Cl)s1)N1CCSCC1 (stereo not shown) [compound 224]
< 10 | CCC(C(=O)Nc1ncc(Cc2ccccc2Cl)s1)N1CCCCC1 (stereo not shown) [compound 225]
